Test results as given in patent US8906885B2, “Treating cancer with HSP90 inhibitory compounds” (Synta Pharmaceuticals Corp., priority 2011, dated 2014).
Like-named read-outs stand apart in the source and are kept apart here.

Key:
[1] = system: NB-39-nu neuroblastoma cell line; test: NB-39-nu neuroblastoma cell viability; conditions: for effect in combination with ganetespib: NB-39-nu cells
H3122 xenografts [2] = system: H3122 xenografts
Protocol: Tumor volume was measured twice weekly to assess the level of growth inhibition.
As for in vivo xenograft tumor models, female BALB/c, immunodeficient BALB/c nude and CB-17/Icr-Prkdcscid/Crl (SCID) mice (Charles River Laboratories, Wilmington, Mass.) at 7-12 weeks of age were maintained in a pathogen-free environment and all in vivo procedures were approved by the Synta Pharmaceuticals Corp. Statistical analyses were performed using a Kruskal-Wallace one-way ANOVA on ranks followed by the Tukey test. […]

[3] = system: crizotinib resistant H2228 cells; test: Viability of crizotinib resistant H2228 cells; type: cell-based
H3122 NSCLC cells = test: H3122 cell viability, Cell Titer Glo, 72 h; type: cell-based; conditions: for IC50: Homo sapiens, NCI-H3122, read-out: cytotoxic potency
Protocol: H3122 cells were seeded in 96 well plates at a density of 7500 cells per well.
Twenty-four hours after plating, cells were dosed with graded concentrations of drug or vehicle for 72 hours. Viability was measured by the Cell Titer Glo assay (Promega).
(§1) Then, criztoinib was added to a final concentration of 1 μM. […] Viability was measured by Cell Titer Glo assay (Promega) (FIG. 5)

NPM-ALK/BaF3 cells = test: Cytotoxic IC50 by XTT assay, NPM-ALK/BaF3 cells; conditions: read-out: cytotoxic IC50; crizotinib-sensitive parental NPM-ALK/BaF3, 72-hr incubation
H2228 NSCLC cells = test: H2228 cell viability; type: cell-based
EML4-ALK [4] = molecular target: T1, EML4-ALK (Homo sapiens, UniProt Q9UM73); test: Western blot of EML4-ALK and signaling proteins in H3122 cells; type: cell-based
T1 construct: the breakpoint of ALK occurs consistently at exon 20, 5′ of the kinase domain; EML4 N-terminal portion (through exon 13); endogenous in cells; host or cells: H3122 NSCLC cells; the other entry of the earlier key: EML4 (Q9HC35, Echinoderm microtubule-associated protein-like 4)
Protocol: H3122 cells were plated in 6 well plates at a density of 300,000 cells per well. […] Equivalent amounts of protein were resolved by SDS-PAGE followed by western blot analysis of signaling proteins.

H3122 xenografts [5] = test: Sequential treatment of H3122 xenografts progressing on ganetespib; type: in vivo, mouse; conditions: after 26 days of ganetespib
EML4-ALK positive NSCLC = test: Case study, crizotinib refractory EML4-ALK positive NSCLC patient; type: in vivo, human; conditions: after three weeks of once-weekly injections; patient with resistance mutation to crizotinib
Excerpt: FIG. 2 depicts lung photographs of a person with NSCLC, who was diagnosed, and treated with pemetrexed/cisplatinum with pemetrexed maintenance for thirteen months. […] The picture on the left was taken on before commencing treatment with ganetespib. Treatment of ganetespib was initiated nine days later. The picture on the right was taken thirty-one days after the picture on the left.
The picture on the left was taken on before commencing treatment with ganetespib. Treatment of ganetespib was initiated nine days later.

[6] = system: crizotinib resistant H3122 cells; test: Viability of crizotinib resistant H3122 cells; type: cell-based
Protocol: as §1

H3122 xenografts [7] = test: Survival of animals bearing H3122 xenografts; type: in vivo, mouse
ALK = ALK degradation and effector signaling in NB-39-nu cells
[8] = system: crizotinib-resistant NPM-ALK/BaF3 cells; conditions: all crizotinib-resistant NPM-ALK/BaF3 clones
[9] = system: NPM-ALK and mutant NPM-ALK; test: Immunoblotting of NPM-ALK degradation in BaF3 cells; type: cell-based; conditions: wild type and 15 mutant forms
EML4-ALK [10] = test: Pharmacodynamic analysis in H3122 xenografts (western blot)
ALK+ NSCLC = test: Phase 2 NSCLC trial, patients tested for ALK translocation or rearrangement (ALK+); type: in vivo, human; conditions: eight ALK+ patients; monotherapy once-weekly 200 mg/m^2
Excerpt: FIG. 1 is a waterfall diagram showing the best percentage changes in size of target lesions responses according to ALK status after treatment with ganetespib. The y axis represents the percentage tumor volume change from baseline. […] A subject was considered to be ALK+ if a mutation in ALK was detected using any of the methods.
Of 23 patients in a Phase 2 trial tested for ALK translocation or rearrangement (ALK+), eight patients were ALK+ in at least one assay. […] The disease control rate in this population was ⅞ (88%), and the objective response rate (CR+PR) was 4/8 (50%).
This Phase 2 NSCLC trial was designed to enroll patients with advanced, metastatic disease (Stage IIIB and IV) who had failed prior therapy. Patients were grouped into one of three cohorts based on the genetic profile of their cancer—(A) EGFR mutation, (B) KRAS mutation, (C) neither EGFR nor KRAS mutation—and were treated with Compound 1, as a monotherapy, once-weekly at a dose of 200 mg/m^2. Based on initial encouraging signs of activity, the trial was expanded with two additional patient cohorts, including a cohort which allowed for combination treatment with ganetespib and docetaxel.

T1 sequence (Q9UM73 with tags, fused parts or gaps): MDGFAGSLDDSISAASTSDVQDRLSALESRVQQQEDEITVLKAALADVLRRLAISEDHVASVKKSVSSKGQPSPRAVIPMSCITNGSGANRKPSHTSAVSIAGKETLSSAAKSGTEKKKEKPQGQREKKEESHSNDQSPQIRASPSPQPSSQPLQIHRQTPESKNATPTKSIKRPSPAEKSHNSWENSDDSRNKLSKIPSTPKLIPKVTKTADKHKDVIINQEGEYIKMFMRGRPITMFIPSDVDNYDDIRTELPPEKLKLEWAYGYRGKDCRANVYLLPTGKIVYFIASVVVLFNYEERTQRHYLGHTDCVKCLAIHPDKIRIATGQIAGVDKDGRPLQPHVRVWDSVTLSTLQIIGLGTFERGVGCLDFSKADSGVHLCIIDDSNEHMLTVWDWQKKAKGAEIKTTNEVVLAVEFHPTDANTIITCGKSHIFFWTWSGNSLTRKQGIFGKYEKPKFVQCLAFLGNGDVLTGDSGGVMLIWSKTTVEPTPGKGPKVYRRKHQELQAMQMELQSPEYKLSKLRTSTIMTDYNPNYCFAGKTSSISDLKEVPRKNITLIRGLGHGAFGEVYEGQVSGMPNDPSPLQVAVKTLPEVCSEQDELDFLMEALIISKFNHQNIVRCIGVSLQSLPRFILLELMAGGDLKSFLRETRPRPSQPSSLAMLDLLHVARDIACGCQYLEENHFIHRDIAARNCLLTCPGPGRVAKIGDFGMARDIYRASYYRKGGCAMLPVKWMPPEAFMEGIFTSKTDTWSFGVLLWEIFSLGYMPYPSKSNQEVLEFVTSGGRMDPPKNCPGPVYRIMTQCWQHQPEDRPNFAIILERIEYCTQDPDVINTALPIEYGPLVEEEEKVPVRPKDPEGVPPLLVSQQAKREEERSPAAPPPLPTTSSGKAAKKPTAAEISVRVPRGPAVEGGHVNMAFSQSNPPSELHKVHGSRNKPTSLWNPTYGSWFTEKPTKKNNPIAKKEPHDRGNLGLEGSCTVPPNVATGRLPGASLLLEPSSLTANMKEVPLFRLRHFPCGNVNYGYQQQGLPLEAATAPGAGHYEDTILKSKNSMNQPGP

COc1cc(N2CCC(N3CCN(C)CC3)CC2)ccc1Nc1ncc(Cl)c(Nc2ccccc2S(=O)(=O)C(C)C)n1 [TAE684]
effect in combination with ganetespib [1]: enhanced the anticancer actions of ganetespib

CC(C)c1cc(-c2nnc(O)n2-c2ccc3c(ccn3C)c2)c(O)cc1O [ganetespib, 3-(2,4-dihydroxy-5-isopropyl-phenyl)-4-(1-methyl-indol-5-yl)-5-hydroxy-[1,2,4] triazole]
T/C value (H3122 xenografts [2]; ganetespib 25 mg/kg once weekly): 41%
T/C value (H3122 xenografts [2]; ganetespib 25 mg/kg two consecutive days each week): 10%
T/C value (H3122 xenografts [2]; ganetespib 50 mg/kg i.v. once a week, 3 week period): 21%
activity in crizotinib resistant cells [3]: low nanomolar activity equivalent to that observed in the parental population
potency compared with crizotinib (H3122 NSCLC cells; H3122 NSCLC cells): significantly more potent than crizotinib
potency relative to crizotinib (H3122 NSCLC cells; H3122 cells): ~50 times
potency compared to other anticancer agents (crizotinib, 17-AAG, pemetrexed, BEZ-235, AZD6244) (H3122 NSCLC cells; H3122 cells, 72 hours): 2-300 ×
IC50 (H3122 NSCLC cells; H3122 cells): 0.0032 µM
IC50 (NPM-ALK/BaF3 cells): 0.021 µM
potency compared with crizotinib (H2228 NSCLC cells): significantly more potent than crizotinib
concentration giving complete loss of phosphorylated EML4-ALK (EML4-ALK [4]): 30 nM
response of tumors progressing (>20% increase in volume) on ganetespib to subsequent treatment (H3122 xenografts [5]): remained fairly stable
tumor response on lung pictures (EML4-ALK positive NSCLC): visible and significant tumor shrinkage
IC50 ([1]; Neuroblastoma cell, read-out: viability IC50): 0.01 µM
activity in crizotinib resistant cells [6]: low nanomolar activity equivalent to that observed in the parental population
animals lost on study (H3122 xenografts [7]; ganetespib 50 mg/kg 1×/wk, as of day 75): none of the animals treated with ganetespib had been lost
degradation of ALK (ALK): dose-dependent degradation
IC50 values in crizotinib-resistant clones [8]: essentially identical to that of NPM-ALK/BaF3
degradation of ALK [9]: induced the degradation of wild type and all 15 mutant forms of ALK
duration of EML4-ALK depletion and block of oncogenic signaling pathways (EML4-ALK [10]; 100 mpk (FIG. 13 legend)): up to 4 days
time to degradation of EML4-ALK and deactivation of ERK signaling (EML4-ALK [10]; single bolus injection 50 mg/kg): ≤ 24 h
duration of destabilization of fusion kinase and its effectors (EML4-ALK [10]; single dose 50 mg/kg): up to 72 h
disease control rate (ALK+ NSCLC): 88%
objective response rate (CR+PR) (ALK+ NSCLC): 50%
patients showing tumor shrinkage in target lesions (ALK+ NSCLC): 75%

C[C@@H](Oc1cc(-c2cnn(C3CCNCC3)c2)cnc1N)c1c(Cl)ccc(F)c1Cl [crizotinib, reference compound]
IC50 (H3122 NSCLC cells; H3122 cells): 0.156 µM
response of tumors progressing (>20% increase in volume) on ganetespib to subsequent treatment (H3122 xenografts [5]): intermediary response
effect in combination with ganetespib [1]: enhanced the anticancer actions of ganetespib
survival (day at which 50% of animals died) (H3122 xenografts [7]; crizotinib 50 mg/kg 5×/wk): 54 days
